According to ChEMBL document CHEMBL4813985, “Lead optimization generates selenium-containing miconazole CYP51 inhibitors with improved pharmacological profile for the treatment of fungal infections” (Eur J Med Chem, 2021):
≈ marks a conversion by molar mass, not a printed value.

Assays:
Candida albicans [1] = experiment: Antifungal activity against Candida albicans CPCC400616 measured after 24 hrs by broth microdilution assay; assay type: functional
[Candida] zeylanoides = Antifungal activity against Candida zeylanoides CMGCC2.3739 measured after 24 hrs by broth microdilution assay; assay type: functional; details: Dujonia zeylanoides
Cryptococcus neoformans = experiment: Antifungal activity against Cryptococcus neoformans CMGCC2.3161 measured after 72 hrs by broth microdilution assay; assay type: functional
Pichia kudriavzevii = experiment: Antifungal activity against Candida krusei AS2.1045 measured after 24 hrs by broth microdilution assay; assay type: functional
Nakaseomyces glabratus = experiment: Antifungal activity against Candida glabrata measured after 24 hrs by broth microdilution assay; assay type: functional
Candida parapsilosis = experiment: Antifungal activity against Candida parapsilosis ATCC 22019 measured after 24 hrs by broth microdilution assay; assay type: functional; details: Lodderomyces parapsilosis
Aspergillus fumigatus = experiment: Antifungal activity against Aspergillus fumigatus CMGCC3.7795 measured after 72 hrs by broth microdilution assay; assay type: functional
HL-60 = experiment: Cytotoxicity against human HL-60 cells assessed as reduction in cell viability incubated for 96 hrs by MTT assay; assay type: cell-based; details: HL-60, 96 h
MDA-MB-231 = experiment: Cytotoxicity against human MDA-MB-231 cells assessed as reduction in cell viability incubated for 96 hrs by MTT assay; details: MDA-MB-231, 96 h
PC-3 = experiment: Cytotoxicity against human PC3 cells assessed as reduction in cell viability incubated for 96 hrs by MTT assay; assay type: cell-based; details: PC-3, 96 h, read-out: IC50
[2] = Hemolytic activity in rabbit RBC assessed as hemolysis ratio at 1 ug/ml measured after 3 hrs by microplate reader assay relative to control; assay type: ADME, cell-based, Oryctolagus cuniculus, Erythrocyte; details: rabbit red blood cells (erythrocytes), at 1 µg/mL, read-out: Activity
[3] = Hemolytic activity in rabbit RBC assessed as hemolysis ratio at 2 ug/ml measured after 3 hrs by microplate reader assay relative to control; assay type: ADME, cell-based, Oryctolagus cuniculus, Erythrocyte; details: rabbit red blood cells (erythrocytes), at 2 µg/mL, read-out: Activity
[4] = Hemolytic activity in rabbit RBC assessed as hemolysis ratio at 4 ug/ml measured after 3 hrs by microplate reader assay relative to control; assay type: ADME, cell-based, Oryctolagus cuniculus, Erythrocyte; details: rabbit red blood cells (erythrocytes), at 4 µg/mL, read-out: Activity
[5] = Hemolytic activity in rabbit RBC assessed as hemolysis ratio at 16 ug/ml measured after 3 hrs by microplate reader assay relative to control; assay type: ADME, cell-based, Oryctolagus cuniculus, Erythrocyte; details: rabbit red blood cells (erythrocytes), at 16 µg/mL, read-out: Activity
[6] = Metabolic stability in mouse liver microsomes assessed as half life; assay type: ADME, Microsome
[7] = Metabolic stability in mouse liver microsomes assessed as clearance; assay type: ADME, Microsome; details: read-out: CLH
Candida albicans [8] = experiment: Fungicidal activity against Candida albicans CPCC400616 assessed as fungal killing incubated for 48 hrs followed by culturing on PDA plate for 24 hrs; assay type: functional; details: time 72 hrs
[9] = target: T1, Lanosterol 14-alpha demethylase (Candida albicans (strain SC5314 / ATCC MYA-2876) (Yeast), UniProt P10613); experiment: Inhibition of CYP51 in Candida albicans ATCC SC5314 assessed as ergosterol level at 0.03125 ug/ml after 16 hrs by GC-MS analysis (reference value: 98.3%); parameters: scale not given: the % may be the effect or the level left; details: candida albicans sc5314, 16 h, at 0.03125 µg/mL
[10] = target: T1, Lanosterol 14-alpha demethylase; experiment: Inhibition of CYP51 in Candida albicans ATCC SC5314 assessed as ergosterol level at […] ug/ml after 16 hrs by GC-MS analysis (reference value: 98.3%); parameters: scale not given: the % may be the effect or the level left; details: candida albicans sc5314, 16 h, dose 0.125 µg/ml
[11] = target: T1, Lanosterol 14-alpha demethylase; experiment: Inhibition of CYP51 in Candida albicans ATCC SC5314 assessed as ergosterol level at 2 ug/ml after 16 hrs by GC-MS analysis (reference value: 98.3%); parameters: scale not given: the % may be the effect or the level left; details: candida albicans sc5314, 16 h, at 2 µg/mL
[12] = target: T1, Lanosterol 14-alpha demethylase; experiment: Inhibition of CYP51 in Candida albicans ATCC SC5314 assessed as ergosterol level at 8 ug/ml after 16 hrs by GC-MS analysis (reference value: 98.3%); parameters: scale not given: the % may be the effect or the level left; details: candida albicans sc5314, 16 h, at 8 µg/mL
[13] = target: T1, Lanosterol 14-alpha demethylase; experiment: Inhibition of CYP51 in Candida albicans ATCC SC5314 assessed as Obtusifoliol level at 0.03125 ug/ml after 16 hrs by GC-MS analysis (reference value: 0%); parameters: scale not given: the % may be the effect or the level left; details: candida albicans sc5314, 16 h, at 0.03125 µg/mL
[14] = target: T1, Lanosterol 14-alpha demethylase; experiment: Inhibition of CYP51 in Candida albicans ATCC SC5314 assessed as Obtusifoliol level at […] ug/ml after 16 hrs by GC-MS analysis (reference value: 0%); parameters: scale not given: the % may be the effect or the level left; details: candida albicans sc5314, 16 h, dose 0.125 µg/ml
[15] = target: T1, Lanosterol 14-alpha demethylase; experiment: Inhibition of CYP51 in Candida albicans ATCC SC5314 assessed as Obtusifoliol level at 0.5 ug/ml after 16 hrs by GC-MS analysis (reference value: 0%); parameters: scale not given: the % may be the effect or the level left; details: candida albicans sc5314, 16 h, at 0.5 µg/mL
[16] = target: T1, Lanosterol 14-alpha demethylase; experiment: Inhibition of CYP51 in Candida albicans ATCC SC5314 assessed as Obtusifoliol level at 8 ug/ml after 16 hrs by GC-MS analysis (reference value: 0%); parameters: scale not given: the % may be the effect or the level left; details: candida albicans sc5314, 16 h, at 8 µg/mL
[17] = target: T1, Lanosterol 14-alpha demethylase; experiment: Inhibition of CYP51 in Candida albicans ATCC SC5314 assessed as lanosterol level at 0.03125 ug/ml after 16 hrs by GC-MS analysis (reference value: 1.7%); parameters: scale not given: the % may be the effect or the level left; details: candida albicans sc5314, 16 h, at 0.03125 µg/mL
[18] = target: T1, Lanosterol 14-alpha demethylase; experiment: Inhibition of CYP51 in Candida albicans ATCC SC5314 assessed as lanosterol level at […] ug/ml after 16 hrs by GC-MS analysis (reference value: 1.7%); parameters: scale not given: the % may be the effect or the level left; details: candida albicans sc5314, 16 h, dose 0.125 µg/ml
[19] = target: T1, Lanosterol 14-alpha demethylase; experiment: Inhibition of CYP51 in Candida albicans ATCC SC5314 assessed as lanosterol level at 0.5 ug/ml after 16 hrs by GC-MS analysis (reference value: 1.7%); parameters: scale not given: the % may be the effect or the level left; details: candida albicans sc5314, 16 h, at 0.5 µg/mL
[20] = target: T1, Lanosterol 14-alpha demethylase; experiment: Inhibition of CYP51 in Candida albicans ATCC SC5314 assessed as lanosterol level at 2 ug/ml after 16 hrs by GC-MS analysis (reference value: 1.7%); parameters: scale not given: the % may be the effect or the level left; details: candida albicans sc5314, 16 h, at 2 µg/mL
[21] = target: T1, Lanosterol 14-alpha demethylase; experiment: Inhibition of CYP51 in Candida albicans ATCC SC5314 assessed as lanosterol level at 8 ug/ml after 16 hrs by GC-MS analysis (reference value: 1.7%); parameters: scale not given: the % may be the effect or the level left; details: candida albicans sc5314, 16 h, at 8 µg/mL
[22] = target: T1, Lanosterol 14-alpha demethylase; experiment: Inhibition of CYP51 in Candida albicans ATCC SC5314 assessed as Eburicol level at 0.03125 ug/ml after 16 hrs by GC-MS analysis (reference value: 0%); parameters: scale not given: the % may be the effect or the level left; details: candida albicans sc5314, 16 h, at 0.03125 µg/mL
[23] = target: T1, Lanosterol 14-alpha demethylase; experiment: Inhibition of CYP51 in Candida albicans ATCC SC5314 assessed as Eburicol level at 2 ug/ml after 16 hrs by GC-MS analysis (reference value: 0%); parameters: scale not given: the % may be the effect or the level left; details: candida albicans sc5314, 16 h, at 2 µg/mL
[24] = target: T1, Lanosterol 14-alpha demethylase; experiment: Inhibition of CYP51 in Candida albicans ATCC SC5314 assessed as Eburicol level at 8 ug/ml after 16 hrs by GC-MS analysis (reference value: 0%); parameters: scale not given: the % may be the effect or the level left; details: candida albicans sc5314, 16 h, at 8 µg/mL
Candida albicans [25] = experiment: Anti-biofilm activity in Candida albicans CPCC400616 assessed as inhibition of biofilm formation incubated for 24 hrs with 3 hrs precultured fungal suspension by XTT assay; assay type: functional
Candida albicans [26] = experiment: Anti-biofilm activity in Candida albicans CPCC400616 assessed as inhibition of biofilm formation incubated for 24 hrs with 24 hrs precultured fungal suspension by XTT assay; assay type: functional

T1 sequence (P10613 whole entry): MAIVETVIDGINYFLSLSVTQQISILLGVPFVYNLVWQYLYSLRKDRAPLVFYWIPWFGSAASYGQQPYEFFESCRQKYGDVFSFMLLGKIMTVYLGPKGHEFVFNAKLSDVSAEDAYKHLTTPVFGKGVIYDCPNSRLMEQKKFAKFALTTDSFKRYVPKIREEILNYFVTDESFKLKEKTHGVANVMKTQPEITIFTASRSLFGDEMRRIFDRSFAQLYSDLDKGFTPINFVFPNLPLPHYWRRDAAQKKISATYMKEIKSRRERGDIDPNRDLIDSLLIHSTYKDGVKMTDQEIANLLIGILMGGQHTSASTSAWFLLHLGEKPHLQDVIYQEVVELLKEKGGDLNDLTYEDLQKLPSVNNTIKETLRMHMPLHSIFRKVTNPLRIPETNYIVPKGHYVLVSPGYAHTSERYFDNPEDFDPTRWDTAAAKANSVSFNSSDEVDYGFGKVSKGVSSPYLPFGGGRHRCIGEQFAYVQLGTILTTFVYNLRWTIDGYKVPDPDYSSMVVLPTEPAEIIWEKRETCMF

Compound	MIC (Candida albicans [1]) [µg/mL]	MIC ([Candida] zeylanoides) [µg/mL]	MIC (Cryptococcus neoformans) [µg/mL]	MIC (Pichia kudriavzevii) [µg/mL]	MIC (Nakaseomyces glabratus) [µg/mL]	MIC (Candida parapsilosis) [µg/mL]	MIC (Aspergillus fumigatus) [µg/mL]	IC50 (HL-60) [µM]	IC50 (MDA-MB-231) [µM]	IC50 (PC-3) [µM]	hemolysis at 3 h, 1 ug/ml [2] [%]	hemolysis at 3 h, 2 ug/ml [3] [%]	hemolysis at 3 h, 4 ug/ml [4] [%]	hemolysis at 3 h, 16 ug/ml [5] [%]	half-life [6] [min]	CLint scaled [7] [mL/min/kg]	MFC99 (Candida albicans [8]) [µg/mL]	Activity [9] [%]	Activity [10] [%]	Activity [11] [%]	further results
Fc1ccc([Se]C(Cn2ccnc2)c2ccc(F)cc2F)cc1 (centres undefined)	0.25 (≈ 0.656 µM)	0.25 (≈ 0.656 µM)	0.5 (≈ 1.31 µM)	0.5 (≈ 1.31 µM)	1 (≈ 2.62 µM)	0.03 (≈ 0.0787 µM)	4 (≈ 10.5 µM)	24.8	39.5	54.4	0	0	0	100	19.4	282	1 (≈ 2.62 µM)	8.7	5.8	2.2	Activity [12]: 2.1%; Activity [13]: 17%; Activity [14]: 11.1%; Activity [15]: 9.9%; Activity [16]: 10.2%; Activity [17]: 4.1%; Activity [18]: 9.9%; Activity [19]: 10.1%; Activity [20]: 9%; Activity [21]: 5.7%; Activity [22]: 70.2%; Activity [23]: 78%; Activity [24]: 82%; MIC50 (Candida albicans [25]): 8 µg/mL (≈ 21 µM); MIC80 (Candida albicans [25]): 16 µg/mL (≈ 42 µM); MIC50 (Candida albicans [26]): > 128 µg/mL; MIC80 (Candida albicans [26]): > 128 µg/mL
Clc1ccc(COC(Cn2ccnc2)c2ccc(Cl)cc2Cl)c(Cl)c1 (centres undefined) [MICONAZOLE]	0.25 (≈ 0.601 µM)	1 (≈ 2.4 µM)	0.5 (≈ 1.2 µM)	0.5 (≈ 1.2 µM)	0.5 (≈ 1.2 µM)	0.25 (≈ 0.601 µM)	2 (≈ 4.81 µM)	0.8	17	13.4	0.16	8.55	81.8	94	8.3	660	2 (≈ 4.81 µM)	12.2	8.3	5.2	Activity [12]: 4.1%; Activity [13]: 7.2%; Activity [14]: 17.4%; Activity [15]: 9%; Activity [16]: 7.8%; Activity [17]: 10%; Activity [18]: 9.5%; Activity [19]: 8.9%; Activity [20]: 13.6%; Activity [21]: 7.4%; Activity [22]: 70.6%; Activity [23]: 75.2%; Activity [24]: 80.7%; MIC50 (Candida albicans [25]): 32 µg/mL (≈ 76.9 µM); MIC80 (Candida albicans [25]): 128 µg/mL (≈ 308 µM); MIC50 (Candida albicans [26]): > 128 µg/mL; MIC80 (Candida albicans [26]): > 128 µg/mL
